Experimental findings from PubChem BioAssay AID488890 (Southern Research Specialized Biocontainment Screening …, 2010) are described below.

Results filed as inconclusive are left out. Active and inactive are the calls of the source. How the calls were made is not given here. Where only a bound is given, the exact number is not on record here.

This assay concerns Mycobacterium tuberculosis non-replicating, growth inhibition. Kind of assay: growth inhibition of non-replicating M. tuberculosis (AID 488890).

The IC50 is the concentration that inhibits the measured activity by half. Take `COc1ccc(C(=O)COC(=O)CCC(=O)c2cccs2)cc1`: the IC50 was 34.2 µM (inactive). In the case of `CN(C)S(=O)(=O)Oc1ccc(C(=O)Nc2cccc(C(F)(F)F)c2)cc1` it was 13.5 µM (inactive); in that of `CCOc1ccc(CC(=O)N2N=C(C)CC2(O)C(F)(F)F)cc1` (stereo unspecified), 13.3 µM (inactive); in that of `CC(NCCCOc1cccc2ccccc12)c1ccccc1` (stereo unspecified), 15.5 µM (inactive). Turning to `Cc1n[nH]c(=S)n1/N=C/c1ccc(OCc2ccc(Cl)cc2Cl)cc1`, the IC50 was 37.5 µM (inactive). With `CCN(CC)CCCN(C(=O)c1ccco1)c1nc(-c2ccc(C)cc2)cs1`, the IC50 is 21.9 µM (inactive). With `Nc1ccc2c(c1)C(=O)C(=O)c1ccccc1-2`, the IC50 was 2.47 µM. Consider `O=C(CNC(=O)c1ccc(Br)cc1)c1ccc(Br)cc1`, for which the IC50 was 18.3 µM (inactive). In the case of `O=C(Nc1c(F)cc(F)cc1Br)c1cc(-c2ccccc2)on1` it was 6.29 µM; in that of `O=C(N/N=C/c1ccc([N+](=O)[O-])o1)c1ccc(NS(=O)(=O)c2cccs2)cc1`, 9.88 µM; in that of `COc1ccc(NC(=O)C(=O)NNC(=O)C(C)Oc2ccc(Cl)cc2Cl)cc1` (stereo unspecified), 1.53 µM.

As to `C=CCn1c(NC(=O)c2ccccc2)nc2ccccc21`, the IC50 is 21.6 µM (inactive). Next, `CCOc1ccc(OCC(=O)OCc2cc(=O)n3cc(Br)ccc3n2)cc1`: 8.96 µM. Next, `CN(C)CCCn1c(=O)n(C2CCCCC2)c(=O)c2c3c(sc21)CCCCC3`: 20.7 µM (inactive); `CN1C(=O)NC(=O)/C(=C/c2ccc([N+](=O)[O-])s2)C1=O`: 10.3 µM (inactive); `O=C(NC1CC2CCC1C2)C1COc2ccccc2O1` (stereo unspecified): less than 0.1 µM. Next, `CN(C)CCCNc1cc(C(C)(C)C)nc2c(-c3ccc(Cl)cc3)cnn12`: 5.24 µM; `CN(CCOCCOc1ccc(F)cc1)Cc1ccccc1`: 10.9 µM (inactive).

For the compound `O=c1c2cc(Cl)ccc2nc(-c2ccc(Cl)c(Cl)c2)n1O`, the IC50 was less than 0.1 µM.

As to `Cc1ccc(NC(=O)C2=C(c3ccccc3)S(=O)(=O)CCS2(=O)=O)cc1`, the IC50 was 2.05 µM. With `CCOC(=O)C1(O)CC(C)=NN1C(=O)c1cccc(Br)c1` (stereo unspecified), the IC50 is 1.42 µM. For `COc1ccc(C(=O)OCn2nnc3ccccc3c2=O)cc1`, the IC50 is 28.6 µM (inactive).

Turning to `Nc1nc2ccccc2n1CCOc1ccccc1Cl`, the IC50 is 7.58 µM. Next, `COCCNC(=O)c1cc2cc(Cl)cc(Cl)c2oc1=O`: 3.67 µM. Next, `CC1CCCC(NCC(O)COC(c2ccc(F)cc2)c2ccc(F)cc2)C1C` (stereo unspecified): 5.8 µM; `CCn1c(NC(=O)c2ccccc2)nc2ccccc21`: 4.44 µM; `O=C(N/N=C/c1cc([N+](=O)[O-])ccc1O)C1CCCCC1`: 1.97 µM.

For `O=C1OC(/C(=C\Nc2cc(Cl)ccc2O)[N+](=O)[O-])c2ccccc21` (stereo unspecified), the half-maximal inhibitory concentration (IC50) was 7.86 µM. Next, `COC(=O)COc1cccc(NC(=O)c2cccc(C)c2)c1`: 9.25 µM; `CCOC(=O)c1cc2cc3ccccc3cc2oc1=O`: 37.6 µM (inactive); `Cc1ccc(-c2nnc(NC3CCCC3)s2)cc1`: 23.8 µM (inactive).

On to `COc1ccc(C)c2sc(NC(=O)CCS(=O)(=O)c3ccccc3)nc12`, for which the IC50 was 6 µM. In the case of `O=C1CC(N2CCC(C(=O)N3CCCCC3)CC2)C(=O)N1` (stereo unspecified), the IC50 is 12.3 µM (inactive). Next, `O=C(Nc1nccs1)c1ccc(-c2ccc(Cl)cc2)o1`: 21.3 µM (inactive); `CC(C)C(=O)N1CCN(c2ccc(NC(=O)c3ccc([N+](=O)[O-])o3)cc2)CC1`: 1.24 µM.

Regarding `COC(=O)COc1cccc(NC(=O)COc2ccccc2)c1`, the IC50 is 7.75 µM. Next, `COc1cccc2c1C(CO)N1C(C#N)C3CC(C(=O)O)C(C1C2)N3C` (stereo unspecified): 2.09 µM; `CC1(C)CC(=O)C2=C(C1)OC(N)=C([N+](=O)[O-])C2c1ccc(C#N)s1` (stereo unspecified): 11.1 µM (inactive). In the case of `O=C(CN1CCOCC1)N/N=C/c1ccc(-c2ccc(Br)cc2)o1` it was 4.3 µM. Regarding `CCCOC(=O)c1ccc(NC(=O)c2ccc(Br)o2)cc1`, the concentration for half-maximal inhibition (IC50) is 2.96 µM. Next, `COc1cc(OC)cc(-c2nc3ccccc3c(=O)o2)c1`: 2.33 µM; `O=C(Nc1nc2c(Cl)cccc2s1)c1ccc([N+](=O)[O-])o1`: 1.56 µM; `Nc1scc(-c2ccncc2)c1Cl`: 14 µM (inactive). In the case of `CCc1ccc(C(C)NC(=O)C2CCCO2)cc1` (stereo unspecified) it was 8.61 µM; in that of `CC(C)(C)NC(=O)COC(=O)c1snc(C(=O)NC2CCCCC2)c1N`, 1.64 µM; in that of `Cc1cc(Cl)ccc1NNC(=O)c1cccs1`, 14.5 µM (inactive). As to `N#Cc1ccsc1NC(=O)c1ccc(Cl)c([N+](=O)[O-])c1`, the half-inhibitory concentration (IC50) was 4.4 µM.

On to `NC1=NC[C@H](Cc2ccc(O)cc2)N1CCc1cccc2ccccc12`, for which the IC50 is 8.19 µM. Consider `CC(=O)c1ccc(NC(=O)C(Cc2ccccc2)n2cccc2)cc1` (stereo unspecified), for which the IC50 is 12.5 µM (inactive). With `CC(/C=C/c1ccco1)=N\NC(=O)c1cccc(Cl)c1`, the IC50 is 4.86 µM. As to `O=C(COC(=O)CCc1c[nH]c2ccccc12)Nc1ccc([N+](=O)[O-])cc1`, the IC50 is 9.82 µM.

Take `O=C(CCSc1nnc(-c2ccncc2)o1)Nc1cccc(Cl)c1`: the IC50 was 20.3 µM (inactive). In the case of `O=[N+]([O-])c1cccnc1N/N=C/c1ccccc1O` it was 2.87 µM; in that of `O=C(NCc1ccccc1)c1cc2ccccc2oc1=O`, 43.8 µM (inactive). Consider `N#CC1=C(N)Oc2n[nH]c(-c3cccnc3)c2C1c1ccc([N+](=O)[O-])o1` (stereo unspecified), for which the IC50 was 5.62 µM. On to `Brc1ccc(OCCCCN2CCCCC2)cc1`, for which the IC50 was 41.7 µM (inactive).

Take `Nc1cccn2c(-c3ccc(Cl)cc3)cnc12`: the IC50 was 8.34 µM. Next, `O=C(NCc1ccc(F)cc1)c1ccc(Br)o1`: 0.51 µM. Consider `Cc1[nH]n2c(=O)c3c(nc2c1-c1ccc(Cl)cc1)CCC3`, for which the IC50 is 3.4 µM. With `CCOC(=O)COc1c(-c2ccc(OC)cc2)oc2ccccc2c1=O`, the half-maximal inhibitory concentration (IC50) is 4.43 µM. In the case of `O=S(=O)(Nc1ccc(O)c2ccccc12)c1ccc(F)cc1` it was 6.47 µM.

In the case of `COc1ccc(CCNc2cc(-c3ccccc3)nc3ncnn23)cc1`, the IC50 is 0.49 µM.

Regarding `O=C(N/N=C/c1cc(Br)cc(Cl)c1O)c1ccc2c(c1)OCO2`, the IC50 is less than 0.1 µM. In the case of `CC(C)c1nnc(NC(=O)c2c(O)c3cccc4c3n(c2=O)CCC4)s1` it was 1.24 µM.

On to `O=C(COC(=O)COc1ccc(Nc2ccccc2)cc1)NCc1ccco1`, for which the IC50 is 10.3 µM (inactive).

For the compound `O=C(N/N=C(\c1ccccc1)c1cccnc1)c1cccc(F)c1`, the IC50 is 3.88 µM. Regarding `CCCc1cc(C(=O)Nc2cccc(C(C)=O)c2)no1`, the IC50 is 10.2 µM (inactive). Regarding `O=C(CN1CCN(c2ccc([N+](=O)[O-])cc2)CC1)Nc1ccccn1`, the IC50 is 30.8 µM (inactive). Next, `Cc1ccc(C(=O)NCCOc2cccc(C)c2)cc1`: 3.92 µM; `COc1ccc(C(=O)C2CCCN(C(=O)c3ccc(CSC)o3)C2)cc1F` (stereo unspecified): 42.2 µM (inactive); `O=C1NC(=O)N(Cc2ccc(F)cc2)C(=O)/C1=C\c1ccc([N+](=O)[O-])s1`: 11.2 µM (inactive).
